Values after ≈ are worked out from the molar mass of the structure shown. Values joined by “and” are separate entries in the source; they are usually repeats but may differ in a detail not shown here. Equal values may be shown once. Read-outs that look alike come from different tables or passages of the source.
Experiments:
[1] = Electrometric titration in 66% aqueous dimethylformamide; type: physicochemical; conditions: 66% DMF; Na salt; factors: two determinations
[2] = test system: pathogenic organisms, particularly gram-positive bacteria; assay: Inhibition of growth of pathogenic organisms; type: cell-based
[3] = test system: Staphylococcus aureus 3055; assay: MIC, standard agar-dilution test; type: cell-based; conditions: Table XI, sodium salt
[4] = test system: Group D Streptococcus 282; assay: MIC, standard agar-dilution test; type: cell-based; conditions: Table XI, sodium salt
[5] = test system: Streptococcus pyogenes C203; assay: MIC, standard agar-dilution test; type: cell-based; conditions: Table XI, sodium salt
[6] = test system: Streptococcus pneumoniae Park I; assay: MIC, standard agar-dilution test; type: cell-based; conditions: Table XI, sodium salt
[7] = test system: Viridans Streptococcus 9943; assay: MIC, standard agar-dilution test; type: cell-based; conditions: Table XI, sodium salt
[8] = test system: Neisseria gonorrhoeae 111076-4; assay: MIC, standard agar-dilution test; type: cell-based; conditions: Table XI, sodium salt
[9] = test system: Staphylococcus aureus 3055; assay: MIC, standard broth-dilution test; type: cell-based; conditions: Table XII, sodium salt
[10] = test system: Group D Streptococcus 282; assay: MIC, standard broth-dilution test; type: cell-based; conditions: Table XII, sodium salt
[11] = test system: Streptococcus pyogenes C203; assay: MIC, standard broth-dilution test; type: cell-based; conditions: Table XII, sodium salt
[12] = test system: Streptococcus pneumoniae Park I; assay: MIC, standard broth-dilution test; type: cell-based; conditions: Table XII, sodium salt
[13] = test system: Viridans Streptococcus 9943; assay: MIC, standard broth-dilution test; type: cell-based; conditions: Table XII, sodium salt
[14] = test system: Actinomyces isaelii; assay: MIC anaerobic bacteria, standard agar-dilution test; type: cell-based
[15] = test system: Clostridium perfringens; type: cell-based; conditions: anaerobic, agar-dilution
[16] = test system: Clostridium septicum; assay: MIC anaerobic bacteria, standard agar-dilution test; type: cell-based
[17] = test system: Eubacterium aerofaciens; assay: as above; type: cell-based
[18] = test system: Peptococcus asaccharolyticus; assay: as above; type: cell-based
[19] = test system: Peptococcus prevoti; assay: as above; type: cell-based
[20] = test system: Peptostreptococcus anaerobius; assay: as above; type: cell-based
[21] = test system: Peptostreptococcus intermedius; assay: as above; type: cell-based
[22] = test system: Propionibacterium acnes; assay: as above; type: cell-based
[23] = test system: Bacteroides fragilis; assay: as above; type: cell-based
[24] = test system: Fusobacterium symbiosum; assay: as above; type: cell-based
[25] = test system: Fusobacterium necrophorum; assay: as above; type: cell-based
[26] = test system: Staphylococcus aureus; assay: MIC, agar dilution (Table XV); type: cell-based
Description: ^1 MIC = minimum inhibitory concentration (μg/ml), agar dilution

[27] = test system: Streptococcus pyogenes; assay: MIC, agar dilution (Table XV); type: cell-based
[28] = test system: Streptococcus pneumoniae; assay: MIC, agar dilution (Table XV); type: cell-based
[29] = test system: Staphylococcus aureus; assay: Experimental bacterial infection in mice, ED50; type: in vivo; conditions: two doses, subcutaneous administration
Description: (§1) When two doses of test compound were administered to mice in illustrative infections, the activity observed was measured as an ED50 value [effective dose in mg/kg to protect fifty percent of the test animals: See Warren Wick, et al., J. Bacteriol. 81, 233-235 (1961)].

[30] = test system: Streptococcus pneumoniae; assay: Experimental bacterial infection in mice, ED50; type: in vivo; conditions: two doses, subcutaneous administration
Description: as §1

[31] = test system: Streptococcus pyogenes; assay: Experimental bacterial infection in mice, ED50; type: in vivo; conditions: two doses
Description: as §1

[32] = test system: Streptococcus faecalis (Guze); assay: In vitro susceptibility (MIC) of the S. faecalis Guze strain; type: cell-based
[33] = test system: Streptococcus faecalis (Guze); assay: Streptococcus faecalis descending rat pyelonephritis test; type: in vivo, rat (female albino, Cox-Wistar)
Description: In this test, the bacterial culture used was Streptococcus faecalis (Guze). The culture was grown on Trypticase soy agar (BBL), suspended in brain heart infusion broth (BBL), divided into 0.2-ml portions, and frozen in liquid nitrogen. Bacterial suspensions for rat inoculations were prepared daily by seeding a 50-ml flask of trypticase soy broth (BBL) from a frozen ampoule and growing the culture overnight at 37° C. on a shaker. The S. faecalis culture was diluted to 5×10^8 colony-forming units per ml. Test compounds were injected subcutaneously once daily for seven days. All compounds were suspended in 0.125% carboxymethylcellulose.
The experimental rat infections were accomplished by the following procedure. Female, random-bred albino rats (Cox-Wistar) weighing 190 to 210 g were anesthetized by intraperitoneal injection of 12 mg of sodium methohexital supplemented as necessary. The experimental pyelonephritis model was based on the studies of Guze and Beeson in which the left ureter was occluded for 20 min, followed by injection of 0.5 ml of the test organism in the femoral vein. Antimicrobial therapy was commenced 4 to 5 hrs postinfection. Four hours after the last treatment the rats were sacrificed, and the left kidney was removed and homogenized in a Duall grinder containing 9 ml of physiological saline. This represented a 10^-1 dilution of the kidney tissue. Additional 10-fold dilutions in saline were based on the anticipated bacterial cells present in the tissue homogenate. Finally, duplicate agar pour plates were made from several of these dilutions, and the plates were incubated overnight at 37° C. The therapeutic results were expressed in two ways: (i) the percentage of rats with kidney counts of less than 10^2 per g of kidney tissue, referred to as "cures," and (ii) the percentage of rats with at least a 4-log10 reduction in bacterial titer compared with infected control kidneys. Control rats were treated with 0.125% carboxymethylcellulose only. Viable cell counts in kidney tissue from control rats with S. faecalis ranged from 1.2×10^8 to 4.6×10^8 per g of homogenized tissue.

[34] = Toxicity (LD50) in mouse; type: in vivo
[35] = Toxicity (LD50) in rat; type: in vivo; conditions: IV
[36] = test system: Micrococcus luteus; assay: Bioassay, paper-disc agar-diffusion; conditions: Na salts; Table VIII
[37] = test system: A21978.6; assay: Antibiotic sensitivity, sensitivity discs on seeded agar plates; type: cell-based, Streptomyces roseosporus; conditions: Conc./disc: erythromycin 15 μg, cephalothin 30 μg, lincomycin 2 μg, nystatin 100 units, polymyxin B 300 units, streptomycin 10 μg, tetracycline 30 μg, vancomycin "+μg"; further: key: +: sensitive (zones of inhibition); -: resistant (no zones of inhibition)
Description: (§2) Temperature range, NaCl tolerance, pH range, and antibiotic sensitivity were done using ISP #2 agar medium. The range of temperatures were: 25°, 28°, 30°, 34°, 37°, 40°, 45°, 50° and 55° C. NaCl tolerance was measured by adding NaCl to the agar to equal: 0, 1, 2, 3, 4, 5, 6, 8, 10 and 12%. These were incubated at 30° C. The pH range was measured by adjusting the agar from pH 3.0 to 11.0 at increments of 1.0 pH units, just prior to pouring. Antibiotic sensitivity was determined using sensitivity discs padded onto seeded agar plates.

[38] = test system: S. roseosporus; assay: as above; type: cell-based, Streptomyces roseosporus; conditions: Conc./disc: erythromycin 15 μg, cephalothin 30 μg, lincomycin 2 μg, nystatin 100 units, polymyxin B 300 units, streptomycin 10 μg, tetracycline 30 μg, vancomycin "+μg"; further: key: +: sensitive (zones of inhibition); -: resistant (no zones of inhibition)
Description: as §2, with “NaCl tolerance was measured by adding NaCl to the agar to equal: 0, 1, 2, 3, 4, 5, 6, 8, 10 and 12%.” left out

CC(C)CCCCCCCCC(=O)N[C@@H](Cc1c[nH]c2ccccc12)C(=O)N[C@@H](CC(N)=O)C(=O)N[C@@H](CC(=O)O)C(=O)N[C@@H]1C(=O)NCC(=O)N[C@@H](CCCN)C(=O)N[C@@H](CC(=O)O)C(=O)N[C@H](C)C(=O)N[C@@H](CC(=O)O)C(=O)NCC(=O)N[C@H](CO)C(=O)N[C@@H]([C@H](C)CC(=O)O)C(=O)N[C@@H](CC(=O)c2ccccc2N)C(=O)O[C@@H]1C [Factor C2]
pKa (first group) [1]: 5.8 and 5.93
pKa (second group) [1]: 7.6 and 7.63
growth inhibition [2]: inhibit the growth of certain pathogenic organisms, particularly gram-positive bacteria
MIC [3]: 0.13 µg/mL
MIC [4]: 0.25 µg/mL
MIC [5]: 0.13 µg/mL
MIC [6]: 0.25 µg/mL
MIC [7]: 1.0 µg/mL
MIC [8]: 4.0 µg/mL
MIC [9]: 0.5 µg/mL
MIC [10]: 1.0 µg/mL
MIC [11]: 0.25 µg/mL
MIC [12]: 1.0 µg/mL
MIC [13]: 16.0 µg/mL
MIC [14]: 1.0 µg/mL (≈ 0.607 µM)
MIC [15]: 8 µg/mL (≈ 4.85 µM)
MIC [16]: 1.0 µg/mL (≈ 0.607 µM)
MIC [17]: 8 µg/mL (≈ 4.85 µM)
MIC [18]: 2 µg/mL (≈ 1.21 µM)
MIC [19]: 1.0 µg/mL (≈ 0.607 µM)
MIC [20]: 1.0 µg/mL (≈ 0.607 µM)
MIC [21]: 1.0 µg/mL (≈ 0.607 µM)
MIC [22]: 2 µg/mL (≈ 1.21 µM)
MIC [23]: > 128 µg/mL
MIC [24]: > 128 µg/mL
MIC [25]: 64 µg/mL (≈ 38.8 µM)
MIC [26]: 0.13 µg/mL (≈ 0.0788 µM)
MIC [27]: 0.13 µg/mL (≈ 0.0788 µM)
MIC [28]: 0.13 µg/mL (≈ 0.0788 µM)
ED50 [29]: 0.16 mg/kg
ED50 [30]: 0.14 mg/kg
ED50 [31]: 0.032 mg/kg
ED50 ([31]; oral administration): 59 mg/kg
MIC ([32]; Table XVI): 0.25 µg/mL (≈ 0.152 µM)
Percent of Rats Cured ([33]; 1.0 mg/kg × 7, subcutaneous): 89%
Percent of Rats with a 4-Log Titer Decrease ([33]; 1.0 mg/kg × 7, subcutaneous): 100%
LD50 ([34]; IV): 150 to 250 mg/kg
LD50 ([34]; SC): 175 mg/kg
LD50 [35]: 204 ± 17 mg/kg
Bioassay (Micrococcus luteus) [36]: 1390 units/mg

CN(C)C1C(=O)C(C(N)=O)=C(O)C2(O)C(=O)C3=C(O)c4c(O)cccc4C(C)(O)C3CC12 (centres unmarked) [Tetracycline]
Antibiotic sensitivity [37]: +
Antibiotic sensitivity [38]: +

Polymyxin B
Antibiotic sensitivity [37]: +
Antibiotic sensitivity [38]: -

CN[C@H](CC(C)C)C(=O)N[C@H]1C(=O)N[C@@H](CC(N)=O)C(=O)N[C@H]2C(=O)N[C@H]3C(=O)N[C@H](C(=O)N[C@H](C(=O)O)c4cc(O)cc(O)c4-c4cc3ccc4O)[C@H](O)c3ccc(c(Cl)c3)Oc3cc2cc(c3O[C@@H]2O[C@H](CO)[C@@H](O)[C@H](O)[C@H]2O[C@H]2C[C@](C)(N)[C@H](O)[C@H](C)O2)Oc2ccc(cc2Cl)[C@H]1O [Vancomycin, reference compound]
Antibiotic sensitivity [37]: +
Antibiotic sensitivity [38]: +
MIC ([32]; Enterococcus faecalis): 1 µg/mL (≈ 0.69 µM)
Percent of Rats Cured ([33]; 12.0 mg/kg × 7, subcutaneous): 33%
Percent of Rats with a 4-Log Titer Decrease ([33]; 12.0 mg/kg × 7, subcutaneous): 55%

C[C@@H]1[C@H](O)[C@@H](C)/C=C/C=C/CC/C=C/C=C/C=C/C=C/C(O[C@H]2O[C@H](C)[C@@H](O)[C@H](N)[C@@H]2O)CC2O[C@](O)(CC(O)C(O)CCC(O)CC(O)CC(O)CC(=O)O[C@H]1C)CC(O)C2C(=O)O (some centres unmarked) [Nystatin]
Antibiotic sensitivity [37]: -
Antibiotic sensitivity [38]: -

CC(=O)OCC1=C(C(=O)O)N2C(=O)[C@@H](NC(=O)Cc3cccs3)[C@H]2SC1 [Cephalothin]
Antibiotic sensitivity [37]: +
Antibiotic sensitivity [38]: +

CCC[C@@H]1C[C@@H](C(=O)N[C@@H]([C@H]2O[C@H](SC)[C@H](O)[C@@H](O)[C@H]2O)[C@@H](C)O)N(C)C1 [Lincomycin]
Antibiotic sensitivity [37]: -
Antibiotic sensitivity [38]: -

CC[C@H]1OC(=O)[C@H](C)[C@@H](O[C@H]2C[C@@](C)(OC)[C@@H](O)[C@H](C)O2)[C@H](C)[C@@H](O[C@@H]2O[C@H](C)C[C@H](N(C)C)[C@H]2O)[C@](C)(O)C[C@@H](C)C(=O)[C@H](C)[C@@H](O)[C@]1(C)O [Erythromycin, reference compound]
Antibiotic sensitivity [37]: +
Antibiotic sensitivity [38]: +
MIC ([26]; Staphylococcus aureus, read-out: MIC): 0.13 µg/mL (≈ 0.177 µM)
MIC ([27]; Streptococcus pyogenes, read-out: MIC): 0.13 µg/mL (≈ 0.177 µM)
MIC ([28]; Streptococcus pneumoniae, read-out: MIC): 0.5 µg/mL (≈ 0.681 µM)

[H]/N=C(/N)N[C@H]1[C@H](O)[C@@H](O)[C@H](O[C@@H]2O[C@@H](C)[C@](O)(C=O)[C@H]2O[C@@H]2O[C@@H](CO)[C@H](O)[C@@H](O)[C@@H]2NC)[C@@H](N/C(N)=N\[H])[C@@H]1O [Streptomycin]
Antibiotic sensitivity [37]: +
Antibiotic sensitivity [38]: +

From USRE32455E, “A-21978 antibiotics and process for their production” (priority 1985, dated 1987)
